Assay results taken from ChEMBL document CHEMBL1201862, “PubChem BioAssay data set” (2004).
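Tested at 5 concentrations; 48 h exposure; 96-well plates; endpoints linearly interpolated, else capped at highest concentration. Abbreviation: GI50, concentration required for 50% inhibition of growth.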 The source made the active and inactive calls. No stated cut-off is given here; in the data, active = GI50 up to about 1.1 µM and inactive = higher.

How the values were obtained:
Assay in all cases: NCI anticancer screen, dose series, 48 h
[1] = tested on: RPMI-8226
[2] = tested on: TK-10
[3] = tested on: ACHN
[4] = tested on: SN12C
[5] = tested on: M14
[6] = tested on: SK-MEL-5
[7] = tested on: COLO 205
[8] = tested on: SK-MEL-28
[9] = tested on: MOLT-4
[10] = tested on: CAKI-1
[11] = tested on: SF-539
[12] = tested on: CCRF-CEM
[13] = tested on: HCT-15
[14] = tested on: OVCAR-8
[15] = tested on: SNB-75
[16] = tested on: NCI-H226
[17] = tested on: OVCAR-4
[18] = tested on: HOP-62
[19] = tested on: A549
[20] = tested on: U-251

Compound | GI50 [1] | GI50 [2] | GI50 [3] | GI50 [4] | GI50 [5] | GI50 [6] | GI50 [7] | GI50 [8] | GI50 [9] | GI50 [10] | GI50 [11] | GI50 [12] | GI50 [13] | GI50 [14] | GI50 [15] | GI50 [16] | GI50 [17] | GI50 [18] | GI50 [19] | GI50 [20]
CC1=C2C(=CC(C)(CO)C2O)C(=O)C(C)(O)C12CC2 (stereo not given) | 0.895 µM (active) | 0.00719 µM (active) | 0.00152 µM (active) | 0.00705 µM (active) | 0.00327 µM (active) | 0.00108 µM (active) | 0.00353 µM (active) | 0.00425 µM (active) | 0.00156 µM (active) | 0.00367 µM (active) | 0.00569 µM (active) | 0.00201 µM (active) | 0.00197 µM | 0.00286 µM (active) | 0.00395 µM (active) | 0.00492 µM (active) | 0.00243 µM (active) | 0.00433 µM (active) | 0.00254 µM (active) | 0.00102 µM (active)
Cc1cc2nc(C=C(C(F)(F)F)C(F)(F)F)sc2cc1C | 0.055 µM (active) | 2.34 µM (inactive) | 2.99 µM (inactive) | 0.501 µM (active) | 0.782 µM (active) | 2.49 µM (inactive) | 1.4 µM (inactive) | 3.01 µM (inactive) | 0.11 µM (active) | 2.64 µM (inactive) | 1.54 µM (inactive) | 0.0333 µM (active) | 1.71 µM | 0.908 µM (active) | 1.16 µM (inactive) | 1.21 µM (inactive) | 2.99 µM (inactive) | 3.05 µM (inactive) | 4.02 µM (inactive) | 0.871 µM (active)
O=C1C(Cl)=C(Cl)C(=O)N1c1cccc(C(F)(F)F)c1 | > 65.6 µM (inactive) | > 100 µM (inactive) | > 100 µM (inactive) | > 100 µM (inactive) | > 100 µM (inactive) | > 100 µM (inactive) | > 79.3 µM (inactive) | > 100 µM (inactive) | 51.4 µM (inactive) | > 61.9 µM (inactive) | > 100 µM (inactive) | > 51.9 µM (inactive) | > 100 µM | > 100 µM (inactive) | > 100 µM (inactive) | > 100 µM (inactive) | > 100 µM (inactive) | > 100 µM (inactive) | > 100 µM (inactive) | > 100 µM (inactive)
Cc1ccc(-c2cs/c(=N\c3ccccc3)n2NC(=O)c2ccncc2)cc1 | 22.6 µM (inactive) | > 54.7 µM (inactive) | 35.3 µM (inactive) | 45.2 µM (inactive) | 33 µM (inactive) | 18.7 µM (inactive) | 29.8 µM (inactive) | 36.6 µM (inactive) | 26.4 µM (inactive) | 26.4 µM (inactive) | 69 µM (inactive) | 36.6 µM (inactive) | 42.5 µM | 25.8 µM (inactive) | 50.6 µM (inactive) | 28.4 µM (inactive) | 36.9 µM (inactive) | 39.4 µM (inactive) | 31.8 µM (inactive) | 19.1 µM (inactive)
CC(C)c1cccc(C(C)C)c1NC(=O)CCC(=O)NN | 46.1 µM (inactive) | > 100 µM (inactive) | > 100 µM (inactive) | > 100 µM (inactive) | > 100 µM (inactive) | > 100 µM (inactive) | 19.6 µM (inactive) | > 100 µM (inactive) | > 100 µM (inactive) | > 100 µM (inactive) | > 100 µM (inactive) | > 100 µM (inactive) | 18 µM | > 100 µM (inactive) | > 100 µM (inactive) | > 100 µM (inactive) | > 100 µM (inactive) | > 100 µM (inactive) | > 100 µM (inactive) | > 100 µM (inactive)
CC(=O)OC12CC[N+]3(C)CCCCC3C1=Nc1ccccc12 (stereo not given) | > 100 µM (inactive) | > 100 µM (inactive) | > 100 µM (inactive) | > 100 µM (inactive) | > 100 µM (inactive) | > 100 µM (inactive) | 61 µM (inactive) | > 100 µM (inactive) | > 100 µM (inactive) | > 100 µM (inactive) | > 100 µM (inactive) | > 100 µM (inactive) | > 100 µM | > 100 µM (inactive) | > 100 µM (inactive) | > 100 µM (inactive) | > 100 µM (inactive) | > 100 µM (inactive) | 40.5 µM (inactive) | > 100 µM (inactive)
[N-]=[N+]=C1C(=O)C2CC3CC(C2)CC1C3 | > 100 µM (inactive) | > 100 µM (inactive) | > 100 µM (inactive) | > 100 µM (inactive) | > 100 µM (inactive) | > 100 µM (inactive) | > 100 µM (inactive) | > 100 µM (inactive) | > 100 µM (inactive) | > 100 µM (inactive) | > 100 µM (inactive) | > 100 µM (inactive) | > 100 µM | > 100 µM (inactive) | > 100 µM (inactive) | > 100 µM (inactive) | > 100 µM (inactive) | > 100 µM (inactive) | > 100 µM (inactive) | > 100 µM (inactive)
